In series [1] the test system is Human small cell lung cancer LX-1 cell strain. In words: Antitumor activity in nude mice with subcutaneously transplanted LX-1 (amrubicin hydrochloride and irinotecan). The class given is in vivo. The following applies: single agent at maximum tolerated dose, intravenous (amrubicin hydrochloride 25 mg/kg; irinotecan 120 mg/kg), tumor volume measured for 23 days.
Series [2] relates to human squamous cell lung carcinoma QC-56 cell strain. In words: Antitumor activity in nude mice with transplanted QC-56 (amrubicin hydrochloride and vinorelbine). The following applies: single agent at maximum tolerated dose (amrubicin hydrochloride 25 mg/kg; vinorelbine 16 mg/kg). The class given is in vivo. The procedure: (§1) Human small cell lung cancer LX-1 cell strain was subcutaneously transplanted to nude mice (59 animals) at 6 weeks of age. After 11 days from the tumor transplantation, 36 animals having a tumor volume of about 100 to 300 mm^3 were allotted to 6 groups consisting of 6 animals per group. […] Thereafter, tumor volume and body weight of the mice were measured for 23 days.
(§2) Minimum T/C %: the minimum value of ratio (%) of tumor growth rate^*) for respective administration groups to tumor growth rate^*) for the vehicle administration group within the period for measurement. ^*)Tumor growth rate: a ratio of an average value of tumor volume for a group of 6 animals at respective point in time of measurement to an average value of tumor volume for a group of 6 animals at respective point in time of drug administration.
(§3) Antitumor activity by a combination of amrubicin hydrochloride and vinorelbine was tested in the same way as Example 1, except that human squamous cell lung carcinoma QC-56 cell strain was used in place of human small cell lung cancer LX-1 cell strain and that the maximum tolerated dose of vinorelbine was set at 16 mg/kg. Vinorelbine was administered by giving 16, 12.8 or 8 ml/kg aliquot of Navelbine Injection (containing 10 mg/ml), purchased from Kyowa Hakko Kogyo Co., Ltd., as the maximum tolerated dose, the 0.8 times dose or the 0.5 times dose of vinorelbine. In addition, nude mice (100 animals) at 5 weeks of age were used.

Series [3] has the same test system. The series is described as follows: Antitumor activity in nude mice with transplanted QC-56 (amrubicin hydrochloride and gemcitabine). Format: in vivo. As to conditions: single agent at maximum tolerated dose (amrubicin hydrochloride 25 mg/kg; gemcitabine 300 mg/kg i.p. 2q7d). The method, then: as §1, §2, §3
Antitumor activity by a combination of amrubicin hydrochloride and gemcitabine was tested in the same way as Example 2, except that the maximum tolerated dose of gemcitabine was set at 300 mg/kg/day and the administration was intraperitoneally once per week in two cycles. Gemcitabine was administered by giving […] aliquot of Gemzar Injection (containing 200 mg/bial), purchased from Eli Lilly Japan K.K., as the maximum tolerated dose, the 0.8 times dose or the 0.5 times dose of gemcitabine. In addition, nude mice (80 animals) at 5 weeks of age were used.

The conditions of series [4]: mice, cited from earlier work.
The conditions of series [5]: humans, cited from earlier work.
The conditions of series [6]: humans, cited from earlier work. The source holds these as a separate data set.
The conditions of series [7]: rabbit chronic experimental model, compared with doxorubicin; Invest. New Drug, 15, 219–225 (1997); cited from earlier work.
The next series has as its system tumor cells. The following applies: compared with amrubicin; Cancer Chemothr. Pharmacol., 30, 51–57 (1992); cited from earlier work.
[8] abbreviates: listed as amrubicin hydrochloride.

Structures can show the parent of a compound that is named as a salt. Where two headings read alike, the source gives them in different places.

For `CC(=O)[C@]1(N)Cc2c(O)c3c(c(O)c2[C@@H](OC2CC(O)C(O)CO2)C1)C(=O)c1ccccc1C3=O` (stereo partly drawn) [Amrubicin hydrochloride], the “Minimum T/C(%) Average ± SD” value in series [1] was 40.79 ± 5.92%; in series [1] (setting [8]) it was 40.79%; in series [2] it was 37.73 ± 7.56%; in series [2] (setting [8]) it was 37.73%; in series [3], 51.06 ± 16.56%; in series [3] (setting [8]), 51.06%. Besides, the maximum tolerated dose in series [4] (expressed per body surface) is recorded as 75 mg/m^2; in series [4] it was 25 mg/kg; in series [5] (administration in 3 continuous days) it was 50 mg/m^2 per day; in series [5] (once a day single dose) it was 130 mg/m^2.

In the case of `Nc1ccn([C@@H]2O[C@H](CO)[C@@H](O)C2(F)F)c(=O)n1` [Gemcitabine], the “Minimum T/C(%) Average ± SD” value in series [3] came out at 69.47 ± 26.06%; in series [3] (listed as gemcitabine), 69.47%. Besides, in series [6], the maximum administered dose was 1000 mg/m^2. Also, the maximum tolerated dose in series [4] was 300 mg/kg/dose.

In the case of `CCc1c2c(nc3ccc(OC(=O)N4CCC(N5CCCCC5)CC4)cc13)-c1cc3c(c(=O)n1C2)COC(=O)[C@]3(O)CC` [Irinotecan], the maximum administered dose in series [6] (at intervals of 3 weeks) is 350 mg/m^2; in series [6] (at intervals of a week) it was 150 mg/m^2.

Consider `CCC1=C[C@@H]2CN(C1)Cc1c([nH]c3ccccc13)[C@@](C(=O)OC)(c1cc3c(cc1OC)N(C)[C@H]1[C@@](O)(C(=O)OC)[C@H](OC(C)=O)[C@]4(CC)C=CCN5CC[C@]31[C@@H]54)C2` [Vinorelbine], for which the “Minimum T/C(%) Average ± SD” value was 38.24 ± 12.87% in series [2] and 38.24% in series [2] (listed as vinorelbine). In series [6], the maximum administered dose was 25 mg/m^2. For the same compound, the maximum tolerated dose in series [4] was 16 mg/kg.

As for `COc1cc2ncnc(Nc3ccc(F)c(Cl)c3)c2cc1OCCCN1CCOCC1` [ZD 1839, 4-(3-chloro-4-fluoroanilino)-7-methoxy-6-(3-morpholinopropoxy)quinazoline], the maximum tolerated dose in series [4] is reported as 200 mg/kg; in series [5], 700 mg/day.

For `CC(=O)[C@]1(N)Cc2c(O)c3c(c(O)c2[C@@H](O[C@H]2C[C@H](O)[C@H](O)CO2)C1)C(=O)c1ccccc1C3=O` [amrubicin, (+)-(7S,9S)-9-acetyl-9-amino-7-[(2-deoxy-β-D-erythro-pentopyranosyl)oxy]-7,8,9,10-tetrahydro-6,11-dihydroxy-5,12-naphthacenedione], the cardiac toxicity result in series [7] is reported as “far weaker than doxorubicin”.

As for `CC(O)[C@]1(N)Cc2c(O)c3c(c(O)c2[C@@H](O[C@H]2C[C@H](O)[C@H](O)CO2)C1)C(=O)c1ccccc1C3=O` (stereo partly drawn) [amrubicinol], the “inhibitory activity against growth of tumor cells” value in the series with tumor cells is on record as “considerably stronger inhibitory activity against growth of tumor cells than that of amrubicin”.

As to `CC(=O)O[C@@]12CO[C@@H]1C[C@H](O)[C@@]1(C)C(=O)[C@H](O)C3=C(C)[C@@H](OC(=O)[C@H](O)[C@@H](NC(=O)OC(C)(C)C)c4ccccc4)C[C@@](O)([C@@H](OC(=O)c4ccccc4)[C@H]21)C3(C)C` [docetaxel], the maximum administered dose in series [6] was 70 mg/m^2. In addition, the maximum tolerated dose in series [4] is given as 30 mg/kg/dose.

Take `CC(=O)O[C@H]1C(=O)[C@@]2(C)[C@H]([C@H](OC(=O)c3ccccc3)[C@]3(O)C[C@H](OC(=O)[C@H](O)[C@@H](NC(=O)c4ccccc4)c4ccccc4)C(C)=C1C3(C)C)[C@]1(OC(C)=O)CO[C@@H]1C[C@@H]2O` [paclitaxel]: the maximum tolerated dose in series [4] is 12.5 mg/kg/dose.
